# Where a chain is given by its changes, count along the chain named. pIC50, pKd: −log10 of the molar value.
# Experiments:
# [1] = molecular target: T1, wild type MGL (wt-MGLL 6H-11-313) (Homo sapiens, UniProt Q99685); test: MGL Enzyme Activity Assay, purified wild type MGL, 4MU-B substrate; assay type: biochemical; settings: wild type MGL 5 nM, 4MU-B 10 μM, 37° C.; read-out: MGL wild type inh IC50
# T1 construct: purified wild type MGL (wt-MGLL 6H-11-313); 6H (hexahistidine) (N)
# T1 sequence (Q99685 1-303): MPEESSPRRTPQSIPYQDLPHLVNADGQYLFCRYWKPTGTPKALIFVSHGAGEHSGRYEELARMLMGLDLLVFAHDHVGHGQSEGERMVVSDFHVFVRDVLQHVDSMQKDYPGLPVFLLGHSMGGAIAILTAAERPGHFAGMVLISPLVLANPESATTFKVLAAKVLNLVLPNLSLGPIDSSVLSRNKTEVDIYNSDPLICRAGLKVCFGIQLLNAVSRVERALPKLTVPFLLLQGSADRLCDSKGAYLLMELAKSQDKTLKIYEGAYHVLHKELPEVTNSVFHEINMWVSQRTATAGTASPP
# Protocol: All rate-based assays were performed in black 384-well polypropylene PCR microplates (Abgene) in a total volume of 30 μL. […] Final compound concentrations ranged from 17 to 0.0003 μM.
# The IC50 values for the following compounds were determined using Microsoft Office Excel from a fit of the equation to the concentration-response plot of the fractional activity as a function of inhibitor concentration.
# [2] = molecular target: T2, mutant MGL (mut-MGLL 11-313 L179S L186S) (Homo sapiens, UniProt Q99685, L169S/L176S); test: MGL Enzyme Activity Assay, purified mutant MGL, 4MU-B substrate; assay type: biochemical; settings: mutant MGL 5 nM, 4MU-B 10 μM, 37° C.; read-out: MGL mutant inh IC50
# T2 construct: purified mutant MGL (mut-MGLL 11-313 L179S L186S)
# T2 sequence (Q99685 1-303 L169S/L176S): T1 sequence (Q99685 1-303) with L169S, L176S
# Method in brief: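 Purified mutant MGL (5 nM final) with 10 μM 4MU-B in 20 mM PIPES pH 7.0, 150 mM NaCl, 0.001% Tween 20; compounds 17 to 0.0003 μM final. Fluorescence (ex 335/em 440 nm) followed 5 min at 37 °C; IC50 from fit of fractional activity versus inhibitor concentration.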
# [3] = molecular target: T3, MGL (Rattus norvegicus, UniProt Q8R431); test: 2-AG Accumulation Assay in rat brain homogenate; assay type: biochemical; settings: percent of vehicle; for activity at 1 µM: compound @1 µM, read-out: Rat Brain 2AG % VehCntrl (%) @1 µM; for activity at 10 µM: compound @10 µM, read-out: Rat Brain 2AG % VehCntrl (%) @10 µM
# T3 construct: one g rat brain was homogenized using a Polytron homogenizer; from tissue; host or cells: rat brain homogenate
# T3 sequence (Q8R431 1-303): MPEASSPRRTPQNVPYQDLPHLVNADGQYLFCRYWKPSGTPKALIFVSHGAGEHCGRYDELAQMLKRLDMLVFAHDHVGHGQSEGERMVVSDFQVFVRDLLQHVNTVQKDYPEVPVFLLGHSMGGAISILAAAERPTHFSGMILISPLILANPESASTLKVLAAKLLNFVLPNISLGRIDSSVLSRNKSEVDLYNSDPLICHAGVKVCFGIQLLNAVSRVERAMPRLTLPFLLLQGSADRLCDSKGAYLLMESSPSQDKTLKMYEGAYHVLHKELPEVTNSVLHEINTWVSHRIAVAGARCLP
# [4] = molecular target: T4, mutant MGL (Homo sapiens, UniProt Q99685, L169S/L176S); test: MGL ThermoFluor Assay - Mutant; assay type: binding; settings: 0.07 mg/ml mutant MGL, 100 μM ANS, pH 7.0
# T4 construct: purified mutant MGL (mut-MGLL 11-313 L179S L186S)
# T4 sequence (Q99685 1-303 L169S/L176S): T1 sequence (Q99685 1-303) with L169S, L176S
# Protocol: The ThermoFluor (TF) assay is a 384-well plate-based binding assay that measures thermal stability of proteins^1,2. The experiments were carried out using instruments available from Johnson & Johnson Pharmaceutical Research & Development, LLC. TF dye used in all experiments was 1,8-ANS (Invitrogen: A-47). Final TF assay conditions used for MGL studies were 0.07 mg/ml of mutant MGL, 100 μM ANS, 200 mM NaCl, 0.001% Tween-20 in 50 mM PIPES (pH=7.0).
# Screening compound plates contained 100% DMSO compound solutions at a single concentration. […] Columns 12 and 24 were used as DMSO reference and contained no compound. […] Following compound dispension, protein and dye solutions were added to achieve the final assay volume of 3 μL.
# Bar-coded assay plates were robotically loaded onto a thermostatically controlled PCR-type thermal block and then heated from 40 to 90° C. degrees at a ramp-rate of 1° C./min for all experiments. Fluorescence was measured by continuous illumination with UV light (Hamamatsu LC6), supplied via fiber optics and filtered through a band-pass filter (380-400 nm; >60D cutoff). Fluorescence emission of the entire 384-well plate was detected by measuring light intensity using a CCD camera (Sensys, Roper Scientific) filtered to detect 500±25 nm, resulting in simultaneous and independent readings of all 384 wells. A single image with 20-sec exposure time was collected at each temperature, and the sum of the pixel intensity in a given area of the assay plate was recorded vs temperature and fit to standard equations to yield the Tm^1. • 1.
# The Kd values for certain compounds of Formula (I) were determined from a fit of the equation to the concentration-response plot of the fractional activity as a function of […]. For some experiments, quantitative NMR spectroscopy (qNMR) was used to measure concentration of the initial 100% DMSO compound solutions and, using the same fitting method, qKd values were determined.
Compound,pIC50 [1],pIC50 [2],activity at 1 µM [3],pKd [4],activity at 10 µM [3]
"O=C(NC1CN(C2CN(C(=O)c3ccc4nc(-c5ccccc5)sc4c3)C2)C1)c1nccs1 [Cpd 4, N-{1′-[(2-Phenyl-1,3-benzothiazol-6-yl)carbonyl]-1,3′-biazetidin-3-yl}-1,3-thiazole-2-carboxamide]",7.89,8.15,148%,6.84,–
"O=C(NC1CN(C2CN(C(=O)c3cc4ccc(C(F)(F)F)cc4s3)C2)C1)c1nccs1 [Cpd 7, N-(1′-{[6-(Trifluoromethyl)-1-benzothiophen-2-yl]carbonyl}-1,3′-biazetidin-3-yl)-1,3-thiazole-2-carboxamide]",> 8.30,8.00,243%,8.00,–
"O=C(NC1CN(C2CN(C(=O)c3ccc(-c4ccc(C(F)(F)F)s4)cc3)C2)C1)c1nccs1 [Cpd 9, N-[1′-({4-[5-(Trifluoromethyl)thiophen-2-yl]phenyl}carbonyl)-1,3′-biazetidin-3-yl]-1,3-thiazole-2-carboxamide]",6.30,7.89,193%,7.85,160%
"O=C(NC1CN(C2CN(C(=O)c3ccc(-c4ccc(C(F)(F)F)cc4)cc3)C2)C1)c1nccs1 [Cpd 12, N-(1′-{[4′-(Trifluoromethyl)biphenyl-4-yl]carbonyl}-1,3′-biazetidin-3-yl)-1,3-thiazole-2-carboxamide]",> 8.30,7.74,215%,7.29,557%
"O=C(NC1CN(C2CN(C(=O)c3ccc4c(ccn4-c4ccccc4)c3)C2)C1)c1nccs1 [Cpd 13, N-{1′-[(1-Phenyl-1H-indol-5-yl)carbonyl]-1,3′-biazetidin-3-yl}-1,3-thiazole-2-carboxamide]",> 8.30,7.72,441%,7.30,–
"O=C(NC1CN(C2CN(C(=O)c3ccc(-c4ccc(C(F)(F)F)cc4)cc3)C2)C1)c1cscn1 [Cpd 14, N-(1′-{[4′-(Trifluoromethyl)biphenyl-4-yl]carbonyl}-1,3′-biazetidin-3-yl)-1,3-thiazole-4-carboxamide]",8.05,7.57,187%,7.07,–
"O=C(NC1CN(C2CN(C(=O)c3ccc(Cc4ccc(C(F)(F)F)cc4)cc3)C2)C1)c1nccs1 [Cpd 16, N-[1′-({4-[4-(Trifluoromethyl)benzyl]phenyl}carbonyl)-1,3′-biazetidin-3-yl]-1,3-thiazole-2-carboxamide]",> 8.30,7.49,–,–,123%
"CN(C(=O)c1cscn1)C1CN(C2CN(C(=O)c3cc4ccc(C(F)(F)F)cc4s3)C2)C1 [Cpd 48, N-Methyl-N-(1′-{[6-(trifluoromethyl)-1-benzothiophen-2-yl]carbonyl}-1,3′-biazetidin-3-yl)-1,3-thiazole-4-carboxamide]",4.89,5.09,–,< 4.51,–
"O=C(NC1CN(C2CN(C(=O)c3cc4ccc(C(F)(F)F)cc4s3)C2)C1)c1cscn1 [Cpd 49, N-(1′-{[6-(Trifluoromethyl)-1-benzothiophen-2-yl]carbonyl}-1,3′-biazetidin-3-yl)-1,3-thiazole-4-carboxamide]",7.85,> 8.30,167%,7.50,–
"Cc1cc(-c2cccc(C(F)(F)F)c2)ccc1C(=O)N1CC(N2CC(NC(=O)c3nccs3)C2)C1 [Cpd 58, N-(1′-{[3-Methyl-3′-(trifluoromethyl)biphenyl-4-yl]carbonyl}-1,3′-biazetidin-3-yl)-1,3-thiazole-2-carboxamide]",8.10,–,157%,7.18,–
"O=C(NC1CN(C2CN(C(=O)c3ccc(-c4cccc(C(F)(F)F)c4)cc3F)C2)C1)c1nccs1 [Cpd 64, N-(1′-{[3-Fluoro-3′-(trifluoromethyl)biphenyl-4-yl]carbonyl}-1,3′-biazetidin-3-yl)-1,3-thiazole-2-carboxamide]",> 8.30,–,253%,7.70,–
"O=C(c1ccc2cc(-c3ccccc3)ccc2c1)N1CC(N2CC(N3Cc4ccccc4C3=O)C2)C1 [Cpd 69, 2-{1′-[(6-Phenylnaphthalen-2-yl)carbonyl]-1,3′-biazetidin-3-yl}-2,3-dihydro-1H-isoindol-1-one]",> 8.30,8.10,–,–,600%
"O=C(c1ccc2c(-c3ccccc3)cccc2c1)N1CC(N2CC(N3Cc4ccccc4C3=O)C2)C1 [Cpd 97, 2-{1′-[(5-Phenylnaphthalen-2-yl)carbonyl]-1,3′-biazetidin-3-yl}-2,3-dihydro-1H-isoindol-1-one]",> 8.30,> 8.30,–,–,518%
"O=C(c1cc2ccc(-c3ccccc3)cc2s1)N1CC(N2CC(N3Cc4ccccc4C3=O)C2)C1 [Cpd 98, 2-{1′-[(6-Phenyl-1-benzothiophen-2-yl)carbonyl]-1,3′-biazetidin-3-yl}-2,3-dihydro-1H-isoindol-1-one]",> 8.30,> 8.30,–,–,613%
"Cc1c(C(=O)N2CC(N3CC(N4Cc5scnc5C4=O)C3)C2)sc2cc(C(F)(F)F)ccc12 [Cpd 103, 5-(1′-{[3-Methyl-6-(trifluoromethyl)-1-benzothiophen-2-yl]carbonyl}-1,3′-biazetidin-3-yl)-5,6-dihydro-4H-pyrrolo[3,4-d][1,3]thiazol-4-one]",7.68,–,360%,7.48,–
"Cc1cc(-c2cccc(C(F)(F)F)c2)ccc1C(=O)N1CC(N2CC(N3Cc4scnc4C3=O)C2)C1 [Cpd 104, 5-(1′-{[3-Methyl-3′-(trifluoromethyl)biphenyl-4-yl]carbonyl}-1,3′-biazetidin-3-yl)-5,6-dihydro-4H-pyrrolo[3,4-d][1,3]thiazol-4-one]",7.18,–,–,6.67,–
"Cc1cc(-c2ccc(C(F)(F)F)cc2)ccc1C(=O)N1CC(N2CC(N3Cc4scnc4C3=O)C2)C1 [Cpd 105, 5-(1′-{[3-Methyl-4′-(trifluoromethyl)biphenyl-4-yl]carbonyl}-1,3′-biazetidin-3-yl)-5,6-dihydro-4H-pyrrolo[3,4-d][1,3]thiazol-4-one]",6.05,–,–,5.44,–
